Assay results as given in patent US9994551B2, “Pyridazine derivatives as RORc modulators” (Genentech, Inc., priority 2015, dated 2018).

Molecular target: T1, RORc ligand binding domain (Homo sapiens, UniProt P51449)
T1 construct: host or cells: E. coli
T1 sequence (P51449 269-508 limits assumed): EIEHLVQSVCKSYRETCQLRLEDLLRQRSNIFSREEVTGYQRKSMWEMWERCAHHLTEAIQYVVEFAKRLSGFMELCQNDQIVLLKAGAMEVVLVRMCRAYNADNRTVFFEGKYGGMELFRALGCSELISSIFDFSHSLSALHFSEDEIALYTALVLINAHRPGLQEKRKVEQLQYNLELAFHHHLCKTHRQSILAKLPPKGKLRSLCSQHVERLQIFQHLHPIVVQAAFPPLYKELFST
Assay: In vitro RORc ligand binding assay (25-[3H]hydroxycholesterol displacement, filter binding)

Compound	IC50 [nM]
CC[C@@H](O[C@@]12CC[C@@H](c3cc(-c4c(F)cccc4F)nnc31)C2(C)C)C(=O)NC[C@@H](O)CO [Compound 54, (R)-2-(((5S,8R)-3-(2,6-difluorophenyl)-9,9-dimethyl-5,6,7,8-tetrahydro-5,8-methanocinnolin-8-yl)oxy)-N-((R)-2,3-dihydroxypropyl)butanamide]	75.4
CC[C@@H](O[C@@]12CC[C@@H](c3cc(-c4c(F)cccc4F)nnc31)C2(C)C)c1nc(COC)no1 [Compound 41, 5-((R)-1-(((5S,8R)-3-(2,6-difluorophenyl)-9,9-dimethyl-5,6,7,8-tetrahydro-5,8-methanocinnolin-8-yl)oxy)propyl)-3-(methoxymethyl)-1,2,4-oxadiazole]	4
CC[C@@H](O[C@@]12CC[C@@H](c3cc(-c4c(F)cccc4F)nnc31)C2(C)C)C(=O)O [Compound 111, (2R)-2-[[(1R,8S)-5-(2,6-difluorophenyl)-11,11-dimethyl-3,4-diazatricyclo[6.2.1.02,7]undeca-2,4,6-trien-1-yl]oxy]butanoic acid]	14
CC1(C)[C@H]2CC[C@]1(Oc1ccccc1)c1nnc(-c3c(F)cccc3F)cc12 [Compound 24, (5S,8R)-3-(2,6-difluorophenyl)-9,9-dimethyl-8-phenoxy-5,6,7,8-tetrahydro-5,8-methanocinnoline]	14.4
CC1(C)[C@H]2CC[C@]1([C@@H]1CN(Cc3ccccc3)CCO1)c1nnc(-c3c(F)cccc3F)cc12 [Compound 60, (R)-4-benzyl-2-((5R,8R)-3-(2,6-difluorophenyl)-9,9-dimethyl-5,6,7,8-tetrahydro-5,8-methanocinnolin-8-yl)morpholine]	317
CC1(C)[C@H]2CC[C@]1([C@H]1CN(Cc3ccccc3)CCO1)c1nnc(-c3c(F)cccc3F)cc12 [Compound 61, (S)-4-benzyl-2-((5R,8R)-3-(2,6-difluorophenyl)-9,9-dimethyl-5,6,7,8-tetrahydro-5,8-methanocinnolin-8-yl)morpholine]	172
CC1(C)[C@H]2CC[C@]1([C@H]1CN(C(=O)c3ccc(=O)[nH]n3)CCO1)c1nnc(-c3c(F)cccc3F)cc12 (stereo in doubt) [Compound 123, 3-[2-[5-(2,6-difluorophenyl)-11,11-dimethyl-3,4-diazatricyclo[6.2.1.02,7]undeca-2,4,6-trien-1-yl]morpholine-4-carbonyl]-1H-pyridazin-6-one]	720
CCNC(=O)[C@H](CC)O[C@@]12CC[C@@H](c3cc(-c4c(F)cccc4F)nnc31)C2(C)C [Compound 19, (S)-2-(((5S,8R)-3-(2,6-difluorophenyl)-9,9-dimethyl-5,6,7,8-tetrahydro-5,8-methanocinnolin-8-yl)oxy)-N-ethylbutanamide]	34.7
CNC(=O)c1nccnc1O[C@@]12CC[C@@H](c3cc(-c4c(F)cccc4F)nnc31)C2(C)C [Compound 15, 3-(((5S,8R)-3-(2,6-difluorophenyl)-9,9-dimethyl-5,6,7,8-tetrahydro-5,8-methanocinnolin-8-yl)oxy)-N-methylpyrazine-2-carboxamide]	72.2
CCOC(=O)c1coc(N2CCO[C@H]([C@@]34CC[C@@H](c5cc(-c6c(F)cccc6F)nnc53)C4(C)C)C2)n1 [Compound 126, ethyl 2-[2[5-(2,6-difluorophenyl)-11,11-dimethyl-3,4-diazatricyclo[6.2.1.02,7]undeca-2,4,6-trien-1-yl]morpholin-4-yl]oxazole-4-carboxylate]	430
CC(C)(C)OC(=O)N1CCN[C@H]([C@@]23CC[C@@H](c4cc(-c5c(F)cccc5F)nnc42)C3(C)C)C1 (single isomer, unassigned) [Compound 114, tert-butyl 3-[5-(2,6-difluorophenyl)-11,11-dimethyl-3,4-diazatricyclo[6.2.1.02,7]undeca-2,4,6-trien-1-yl]piperazine-1-carboxylate]	420
CCOC(=O)c1cn2c([C@@]34CC[C@@H](c5cc(-c6c(F)cccc6F)nnc53)C4(C)C)cccc2n1 [Compound 108, ethyl 5-((5R,8S)-3-(2,6-difluorophenyl)-9,9-dimethyl-5,6,7,8-tetrahydro-5,8-methanocinnolin-8-yl)imidazo[1,2-a]pyridine-2-carboxylate]	96
CC1(C)[C@H]2CC[C@]1([C@H]1CCCN(C(=O)c3ccno3)C1)c1nnc(-c3c(F)cccc3F)cc12 (stereo in doubt) [Compound 166, [3-[5-(2,6-difluorophenyl)-11,11-dimethyl-3,4-diazatricyclo[6.2.1.02,7]undeca-2,4,6-trien-1-yl]-1-piperidyl]-isoxazol-5-yl-methanone]	33
CN1CCN(C(N)=O)C[C@H]1[C@@]12CC[C@@H](c3cc(-c4c(F)cccc4F)nnc31)C2(C)C [Compound 179, 3-[5-(2,6-difluorophenyl)-11,11-dimethyl-3,4-diazatricyclo[6.2.1.02,7]undeca-2,4,6-trien-1-yl]-4-methyl-piperazine-1-carboxamide]	2.9
CN(C)C(=O)N1CCO[C@H]([C@@]23CC[C@@H](c4cc(-c5c(F)cccc5F)nnc42)C3(C)C)C1 [Compound 86, (R)-2-((5R,8R)-3-(2,6-difluorophenyl)-9,9-dimethyl-5,6,7,8-tetrahydro-5,8-methanocinnolin-8-yl)-N,N-dimethylmorpholine-4-carboxamide]	473
CC[C@H](C[C@@]12CC[C@@H](c3cc(-c4c(F)cccc4F)nnc31)C2(C)C)C(N)=O [Compound 4, (R)-2-(((5R,8R)-3-(2,6-difluorophenyl)-9,9-dimethyl-5,6,7,8-tetrahydro-5,8-methanocinnolin-8-yl)methyl)butanamide]	82.4
Cc1n[nH]c(N2CCO[C@@H]([C@@]34CC[C@@H](c5cc(-c6c(F)cccc6F)nnc53)C4(C)C)C2)n1 (single isomer, unassigned) [Compound 147, 2-[5-(2,6-difluorophenyl)-11,11-dimethyl-3,4-diazatricyclo[6.2.1.02,7]undeca-2,4,6-trien-1-yl]-4-(3-methyl-1H-1,2,4-triazol-5-yl)morpholine]	16
Cc1n[nH]c(N2CCO[C@@H]([C@@]34CC[C@@H](c5cc(-c6c(F)cccc6F)nnc53)C4(C)C)C2)n1 [Compound 93, (S)-2-((5R,8R)-3-(2,6-difluorophenyl)-9,9-dimethyl-5,6,7,8-tetrahydro-5,8-methanocinnolin-8-yl)-4-(3-methyl-1H-1,2,4-triazol-5-yl)morpholine]	191
CC1(C)[C@H]2CC[C@]1(c1cncc3nccn13)c1nnc(-c3c(F)cccc3F)cc12 [Compound 109, (5R,8S)-3-(2,6-difluorophenyl)-8-(imidazo[1,2-a]pyrazin-5-yl)-9,9-dimethyl-5,6,7,8-tetrahydro-5,8-methanocinnoline]	175
CC1(C)[C@H]2CC[C@]1([C@@H]1CCCNC1=O)c1nnc(-c3c(F)cccc3F)cc12 [Compound 139, 3-[5-(2,6-difluorophenyl)-11,11-dimethyl-3,4-diazatricyclo[6.2.1.02,7]undeca-2,4,6-trien-1-yl]piperidin-2-one]	4400
CNC(=O)N1CCC[C@H]([C@@]23CC[C@@H](c4cc(-c5c(F)cccc5F)nnc42)C3(C)C)C1 [Compound 96, (R)-3-((5R,8R)-3-(2,6-difluorophenyl)-9,9-dimethyl-5,6,7,8-tetrahydro-5,8-methanocinnolin-8-yl)-N-methylpiperidine-1-carboxamide]	13
CNC(=O)c1cncc(O[C@@]23CC[C@@H](c4cc(-c5c(F)cccc5F)nnc42)C3(C)C)n1 [Compound 29, 6-(((5S,8R)-3-(2,6-difluorophenyl)-9,9-dimethyl-5,6,7,8-tetrahydro-5,8-methanocinnolin-8-yl)oxy)-N-methylpyrazine-2-carboxamide]	385
CC[C@@H](O[C@@]12CC[C@@H](c3cc(-c4c(F)cccc4F)nnc31)C2(C)C)C(=O)NC(CO)CO [Compound 53, (R)-2-(((5S,8R)-3-(2,6-difluorophenyl)-9,9-dimethyl-5,6,7,8-tetrahydro-5,8-methanocinnolin-8-yl)oxy)-N-(1,3-dihydroxypropan-2-yl)butanamide]	116
CC1(C)[C@H]2CC[C@]1([C@@H]1CN(c3nc(CO)co3)CCO1)c1nnc(-c3c(F)cccc3F)cc12 [Compound 130, [2-[2-[5-(2,6-difluorophenyl)-11,11-dimethyl-3,4-diazatricyclo[6.2.1.02,7]undeca-2,4,6-trien-1-yl]morpholin-4-yl]oxazol-4-yl]methanol]	8.8
CC1(C)[C@H]2CC[C@]1([C@H]1CCCN(C(=O)c3cnccn3)C1)c1nnc(-c3c(F)cccc3F)cc12 [Compound 132, [3-[5-(2,6-difluorophenyl)-11,11-dimethyl-3,4-diazatricyclo[6.2.1.02,7]undeca-2,4,6-trien-1-yl]-1-piperidyl]-pyrazin-2-yl-methanone]	14
CC1(C)[C@H]2CC[C@]1([C@H]1CN(C(=O)C(O)CO)CCO1)c1nnc(-c3c(F)cccc3F)cc12 (stereo partly drawn) [Compound 76, 1-((S)-2-((5R,8R)-3-(2,6-difluorophenyl)-9,9-dimethyl-5,6,7,8-tetrahydro-5,8-methanocinnolin-8-yl)morpholino)-2,3-dihydroxypropan-1-one]	277
CC1(C)[C@H]2CC[C@]1(Oc1cccnc1)c1nnc(-c3c(F)cccc3F)cc12 [Compound 27, (5S,8R)-3-(2,6-difluorophenyl)-9,9-dimethyl-8-(pyridin-3-yloxy)-5,6,7,8-tetrahydro-5,8-methanocinnoline]	67
CC[C@@H](O[C@@]12CC[C@@H](c3cc(-c4c(F)cccc4F)nnc31)C2(C)C)C(=O)N1CCCOCC1 [Compound 101, (R)-2-(((5S,8R)-3-(2,6-difluorophenyl)-9,9-dimethyl-5,6,7,8-tetrahydro-5,8-methanocinnolin-8-yl)oxy)-1-(1,4-oxazepan-4-yl)butan-1-one]	148
